Starred links: 1 amine or outer side, 2 acyl side, 3 side chain; linkers in the order of their positions; H or OH if unused. Positions of bridges follow the written chain, without caps; N, C: chain ends. Non-standard residues stand in square brackets, D forms with d. Residues, ends and D or L forms follow the SMILES beside them. Trp(5-F) = N[C@@H](Cc1c[nH]c2ccc(F)cc12)C(=O)O; Trp(7-aza) = N[C@@H](Cc1c[nH]c2ncccc12)C(=O)O; Phg(2-OMe) = COc1ccccc1[C@H](N)C(=O)O; mXylylene = c1cc(C[*:1])cc(C[*:2])c1; hPhe = N[C@@H](CCc1ccccc1)C(=O)O; dChg = N[C@@H](C(=O)O)C1CCCCC1; Chg = N[C@H](C(=O)O)C1CCCCC1; Phg = N[C@H](C(=O)O)c1ccccc1; NMeS = CN[C@@H](CO)C(=O)O; Nva = CCC[C@H](N)C(=O)O; Aib = CC(C)(N)C(=O)O

For the assay, the target named is C5 (Homo sapiens, UniProt P01031). Description: Human hemolysis assay (RBC lysis assay using complete human sera). It counts as cell-based. Details: with complete human sera (Complement Technology, Tyler Tex.) and polypeptides; tissue Complement Technology, Tyler Tex; host or cells: complete human serum.
The mark [1] stands for this setting: inhibition of lysis of antibody-sensitized sheep erythrocytes, complete human sera.
Setting [2] is: 7-azatryptophan variant polypeptides of R3008, inhibition of red blood cell lysis.

C5, sequence (P01031 19-1676): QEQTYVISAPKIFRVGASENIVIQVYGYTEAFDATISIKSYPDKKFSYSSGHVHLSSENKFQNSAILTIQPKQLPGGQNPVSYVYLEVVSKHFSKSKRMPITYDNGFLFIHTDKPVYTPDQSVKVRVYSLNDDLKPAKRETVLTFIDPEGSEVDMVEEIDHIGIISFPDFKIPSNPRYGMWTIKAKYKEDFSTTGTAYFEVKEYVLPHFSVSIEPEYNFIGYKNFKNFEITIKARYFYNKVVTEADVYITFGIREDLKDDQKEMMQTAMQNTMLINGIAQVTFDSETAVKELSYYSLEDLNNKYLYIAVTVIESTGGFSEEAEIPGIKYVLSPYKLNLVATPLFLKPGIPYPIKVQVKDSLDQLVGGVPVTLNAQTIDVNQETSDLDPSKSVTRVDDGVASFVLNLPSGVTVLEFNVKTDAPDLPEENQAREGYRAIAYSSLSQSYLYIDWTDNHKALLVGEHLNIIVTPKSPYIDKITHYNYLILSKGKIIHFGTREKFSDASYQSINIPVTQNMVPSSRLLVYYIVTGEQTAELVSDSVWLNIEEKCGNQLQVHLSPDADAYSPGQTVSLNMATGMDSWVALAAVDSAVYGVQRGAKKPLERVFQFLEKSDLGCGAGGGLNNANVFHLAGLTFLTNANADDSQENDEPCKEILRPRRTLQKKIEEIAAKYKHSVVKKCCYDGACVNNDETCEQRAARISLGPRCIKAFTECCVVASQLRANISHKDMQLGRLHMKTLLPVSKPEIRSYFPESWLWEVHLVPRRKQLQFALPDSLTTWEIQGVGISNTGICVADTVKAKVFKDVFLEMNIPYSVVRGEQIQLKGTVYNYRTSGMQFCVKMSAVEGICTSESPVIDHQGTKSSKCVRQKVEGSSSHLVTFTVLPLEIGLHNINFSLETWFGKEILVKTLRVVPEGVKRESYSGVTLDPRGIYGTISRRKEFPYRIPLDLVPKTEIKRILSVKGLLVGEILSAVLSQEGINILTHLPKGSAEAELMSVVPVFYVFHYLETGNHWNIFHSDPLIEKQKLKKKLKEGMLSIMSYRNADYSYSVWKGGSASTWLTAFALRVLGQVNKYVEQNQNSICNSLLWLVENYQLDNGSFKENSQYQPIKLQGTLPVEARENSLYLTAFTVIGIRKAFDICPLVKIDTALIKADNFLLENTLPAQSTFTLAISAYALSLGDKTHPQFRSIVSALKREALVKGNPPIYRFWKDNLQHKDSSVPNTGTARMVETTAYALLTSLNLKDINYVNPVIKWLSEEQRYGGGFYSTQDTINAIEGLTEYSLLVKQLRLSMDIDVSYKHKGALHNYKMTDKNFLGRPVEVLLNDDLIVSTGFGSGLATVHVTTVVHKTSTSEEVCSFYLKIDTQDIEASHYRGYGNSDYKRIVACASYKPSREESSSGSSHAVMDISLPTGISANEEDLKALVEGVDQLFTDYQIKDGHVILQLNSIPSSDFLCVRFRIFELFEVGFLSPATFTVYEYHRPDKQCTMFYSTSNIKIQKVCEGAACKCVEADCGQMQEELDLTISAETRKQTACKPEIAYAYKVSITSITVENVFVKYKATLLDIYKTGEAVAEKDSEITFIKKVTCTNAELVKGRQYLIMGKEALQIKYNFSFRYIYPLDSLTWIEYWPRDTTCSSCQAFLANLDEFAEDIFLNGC

For `CCC[C@H](NC(=O)[C@@H]1CSCc2cccc(c2)CSC[C@H](NC(=O)[C@H](CCC)NC(C)=O)C(=O)N[C@@H](c2ccccc2OC)C(=O)N[C@@H]([C@@H](C)O)C(=O)N[C@@H](Cc2c[nH]c3ncccc23)C(=O)N[C@@H](CCC(=O)O)C(=O)N[C@@H](Cc2ccc(O)cc2)C(=O)N(C)[C@@H](CO)C(=O)N[C@@H](Cc2c[nH]cn2)C(=O)N1)C(N)=O` [Compound R3087, [mXylyl(2,10)]Ac-Nvl-C-(2-OMe)Phg-T-azaTrp-E-Y-(N-Me)S-H-C-Nvl-NH2] (Ac-[Nva]C[Phg(2-OMe)]T[Trp(7-aza)]EY[NMeS]HC[Nva]-NH2; linker 2-10 via mXylylene), the IC50 under setting [1] was greater than 25 µM.

Turning to `CCC[C@H](NC(=O)[C@@H]1CSCc2cccc(c2)CSC[C@H](NC(=O)[C@H](CCC)NC(C)=O)C(=O)N[C@@H](c2ccccc2)C(=O)N[C@@H]([C@@H](C)O)C(=O)N[C@@H](Cc2c[nH]c3ccc(F)cc23)C(=O)N[C@@H](CCC(=O)O)C(=O)N[C@@H](Cc2ccc(O)cc2)C(=O)N(C)[C@@H](CO)C(=O)N[C@@H](C)C(=O)N1)C(N)=O` [Compound R3088, [mXyly1(2,10)]Ac-Nvl-C-Phg-T-(5-F)W-E-Y-(N-Me)S-A-C-Nvl-NH2] (Ac-[Nva]C[Phg]T[Trp(5-F)]EY[NMeS]AC[Nva]-NH2; linker 2-10 via mXylylene), the IC50 by setting is: under setting [2], greater than 100 µM; under setting [1], greater than 100 µM.

As to `CCC[C@H](NC(=O)[C@@H]1CSCc2cccc(c2)CSC[C@H](NC(=O)[C@@H](NC(C)=O)C2CCCCC2)C(=O)N[C@@H](c2ccccc2)C(=O)N[C@@H]([C@@H](C)O)C(=O)N[C@@H](Cc2c[nH]c3ncccc23)C(=O)N[C@@H](CCC(=O)O)C(=O)N[C@@H](Cc2ccc(O)cc2)C(=O)N(C)[C@@H](CO)C(=O)N[C@@H](C)C(=O)N1)C(N)=O` [Compound R3089, [mXylyl(2,10)]Ac-Chg-C-Phg-T-azaTrp-E-Y-(N-Me)S-A-C-Nvl-NH2] (Ac-[Chg]C[Phg]T[Trp(7-aza)]EY[NMeS]AC[Nva]-NH2; linker 2-10 via mXylylene), the IC50 under setting [1] was greater than 15 µM.

On to `CCC[C@H](NC(=O)[C@@H]1CSCc2cccc(c2)CSC[C@H](NC(=O)[C@H](CCC)NC(C)=O)C(=O)N[C@@H](Cc2ccccc2)C(=O)N[C@@H]([C@@H](C)O)C(=O)N[C@@H](Cc2c[nH]c3ncccc23)C(=O)N[C@@H](CCC(=O)O)C(=O)N[C@@H](Cc2ccc(O)cc2)C(=O)N(C)[C@@H](CO)C(=O)N[C@@H](C)C(=O)N1)C(N)=O` [Compound R3090, [mXyly1(2,10)]Ac-Nvl-C-F-T-azaTrp-E-Y-(N-Me)S-A-C-Nvl-NH2] (Ac-[Nva]CFT[Trp(7-aza)]EY[NMeS]AC[Nva]-NH2; linker 2-10 via mXylylene), for which the IC50 under setting [1] was greater than 100 µM.

In the case of `CCC[C@H](NC(=O)[C@@H]1CSCc2cccc(c2)CSC[C@H](NC(=O)[C@H](CCC)NC(C)=O)C(=O)N[C@@H](c2ccccc2)C(=O)N[C@@H]([C@@H](C)O)C(=O)N[C@@H](Cc2c[nH]c3ccccc23)C(=O)N[C@@H](CCC(=O)O)C(=O)N[C@@H](Cc2ccc(O)cc2)C(=O)N(C)[C@@H](CO)C(=O)N[C@@H](C)C(=O)N1)C(N)=O` [Compound R3091, [mXylyl(2,10)]Ac-Nvl-C-Phg-T-W-E-Y-(N-Me)S-A-C-Nvl-NH2] (Ac-[Nva]C[Phg]TWEY[NMeS]AC[Nva]-NH2; linker 2-10 via mXylylene), under setting [1], the IC50 was 0.483 µM.

With `CCC[C@H](NC(=O)[C@@H]1CSCc2cccc(c2)CSC[C@H](NC(=O)[C@H](CCC)NC(C)=O)C(=O)N[C@@H](c2ccccc2)C(=O)N[C@@H]([C@@H](C)O)C(=O)N[C@@H](Cc2ccccc2)C(=O)N[C@@H](CCC(=O)O)C(=O)N[C@@H](Cc2ccc(O)cc2)C(=O)N(C)[C@@H](CO)C(=O)N[C@@H](C)C(=O)N1)C(N)=O` [Compound R3092, [mXylyl(2,10)]Ac-Nvl-C-Phg-T-F-E-Y-(N-Me)S-A-C-Nvl-NH2] (Ac-[Nva]C[Phg]TFEY[NMeS]AC[Nva]-NH2; linker 2-10 via mXylylene), the IC50 is, setting by setting: under setting [2], greater than 50 µM; under setting [1], greater than 50 µM.

Take `CCC[C@H](NC(=O)[C@@H]1CSCc2cccc(c2)CSC[C@H](NC(=O)[C@H](CCC)NC(C)=O)C(=O)N[C@H](C2CCCCC2)C(=O)N[C@@H]([C@@H](C)O)C(=O)N[C@@H](Cc2c[nH]c3ncccc23)C(=O)N[C@@H](CCC(=O)O)C(=O)N[C@@H](Cc2ccc(O)cc2)C(=O)N(C)[C@@H](CO)C(=O)N[C@@H](C)C(=O)N1)C(N)=O` [Compound R3093, [mXylyl(2,10)]Ac-Nvl-C-(D-Chg)-T-azaTrp-E-Y-(N-Me)S-A-C-Nvl-NH2] (Ac-[Nva]C[dChg]T[Trp(7-aza)]EY[NMeS]AC[Nva]-NH2; linker 2-10 via mXylylene): the concentration for half-maximal inhibition (IC50) under setting [1] was greater than 100 µM.

For the molecule `CCC[C@H](NC(=O)[C@@H](NC(=O)[C@@H]1CCCN1C(=O)[C@H](Cc1ccc(O)cc1)NC(=O)[C@H](CCC(=O)O)NC(=O)[C@H](Cc1c[nH]c2ccc(OC)cc12)NC(=O)[C@H](Cc1ccc(O)cc1)NC(=O)[C@@H](NC(=O)[C@H](CC(N)=O)NC(=O)[C@H](CCC(=O)O)NC(=O)[C@H](Cc1ccc(O)cc1)NC(C)=O)C(C)(C)C)c1ccccc1)C(N)=O` [Compound R3094, Ac-Y-E-N-Tbg-Y-(5-MeO)W-E-Y-P-Phg-Nvl-NH2], the IC50 runs as follows: (7-azatryptophan variant polypeptides of R3002, inhibition of red blood cell lysis) greater than 100 µM; under setting [1], greater than 100 µM.

As to `CCC[C@H](NC(=O)[C@@H]1CSCc2cccc(c2)CSC[C@H](NC(=O)[C@H](CCC)NC(C)=O)C(=O)N[C@@H](c2ccccc2)C(=O)N[C@@H]([C@@H](C)O)C(=O)N[C@@H](Cc2c[nH]c3ncccc23)C(=O)N[C@@H](CCC(=O)O)C(=O)N[C@@H](CCc2ccccc2)C(=O)N(C)[C@@H](CO)C(=O)N[C@@H](C)C(=O)N1)C(N)=O` [Compound R3095, [mXyly1(2,10)]Ac-Nvl-C-Phg-T-azaTrp-E-(homo)F-(N-Me)S-A-C-Nvl-NH2] (Ac-[Nva]C[Phg]T[Trp(7-aza)]E[hPhe][NMeS]AC[Nva]-NH2; linker 2-10 via mXylylene), under setting [1], the half-maximal inhibitory concentration (IC50) is greater than 50 µM.

In the case of `CCC[C@H](NC(=O)[C@@H]1CSCc2cccc(c2)CSC[C@H](NC(=O)[C@H](CCC)NC(C)=O)C(=O)N[C@@H](c2ccccc2)C(=O)NC(C)(C)C(=O)N[C@@H](Cc2c[nH]c3ncccc23)C(=O)N[C@@H](CCC(=O)O)C(=O)N[C@@H](Cc2ccc(O)cc2)C(=O)N(C)[C@@H](CO)C(=O)N[C@@H](Cc2c[nH]cn2)C(=O)N1)C(N)=O` [Compound R3096, [mXylyl(2,10)]Ac-Nvl-C-Phg-Aib-azaTrp-E-Y-(N-Me)S-H-C-Nvl-NH2] (Ac-[Nva]C[Phg][Aib][Trp(7-aza)]EY[NMeS]HC[Nva]-NH2; linker 2-10 via mXylylene), the 50% inhibitory concentration (IC50) under setting [1] was greater than 50 µM.

As for `CCC[C@H](NC(=O)[C@@H]1CSCc2cccc(c2)CSC[C@H](NC(=O)[C@H](CCC)NC(C)=O)C(=O)N[C@@H](c2ccccc2)C(=O)N[C@@H]([C@@H](C)O)C(=O)N[C@@H](Cc2c[nH]c3ncccc23)C(=O)N[C@@H](CC(=O)O)C(=O)N[C@@H](Cc2ccc(O)cc2)C(=O)N(C)[C@@H](CO)C(=O)N[C@@H](C)C(=O)N1)C(N)=O` [Compound R3097, [mXylyl(2,10)]Ac-Nvl-C-Phg-T-azaTrp-D-Y-(N-Me)S-A-C-Nvl-NH2] (Ac-[Nva]C[Phg]T[Trp(7-aza)]DY[NMeS]AC[Nva]-NH2; linker 2-10 via mXylylene), under setting [1], the IC50 is greater than 100 µM.

A word on the IC50: it is the concentration needed to halve the response being measured.

Source of the values: patent US10208089B2, “Modulation of complement activity” (priority 2014, dated 2019).
